In patent US20060058504A1, “Peptides capable of inducing attraction to the axonal growth and their use for treating neurodegenerative diseases” (Centre National de la Recherche Scientific (CNRS), priority 2002, published 2006):
Where a chain is given by its changes, count along the chain named. Names may count otherwise. “Also recorded” adds a separate entry of the source.

Legend:
[1] = test system: cortical axons repelled by Sema3A secreted from the ventral spinal cord; assay: Co-culture of cortical slices and ventral spinal cord explants (axon guidance response to Sema3A); format: cell-based, mice; conditions: for Axonal length, Away / Number of axons, Away / Axonal length, Towards / Number of axons, Towards: Ctx/vSC co-culture, L1Fc 3 μg/ml, ODQ 10^−5 M; for Axonal length, Away / Number of axons, Away: growth away from spinal cord explant; for Axonal length, Towards / Number of axons, Towards: growth towards spinal cord explant; for effect of inhibitor on L1Fc-induced switch of Sema3A repulsion to attraction: inhibitor combined with L1Fc 3 μg/ml; for guidance index: qualitative index from −2 (repulsion) to +2 (attraction), L1Fc chimeras 3 μg/ml, ODQ 10^−5M; for conversion of Sema3A-induced chemorepulsion into attraction by peptide: peptide at 10^−6M; for switching of Sema3A repulsion to attraction by L1Fc chimera: chimera 3 μg/ml in culture medium
Experimental: Blocks of cortex were dissected from P0 (postnatal day 0) to P2 mice and cut into 250 μm thick slices with a McIlwain tissue chopper. The ventral part of the cervical spinal cord was dissected and cut into 250 μm thick slices. Co-culture of cortical slices and ventral spinal cord explants were performed in a three-dimensional plasma clot, as described previously (Castellani et al., 2000). Cortical slices were oriented in the plasma clot as indicated in FIG. 1B to give to axons equivalent chances to be deflected away or towards the spinal cord explant. Purified wild-type or mutant L1Fc chimeras were added to the culture medium (3 μg/ml). Inhibitors of the guanylyl cyclase (ODQ, 10^−5 M, Sigma) and NOS (7NI, […], Sigma) were added to the culture medium, either alone or with wild-type L1Fc (3 μg/ml). After one or two days in vitro (DIV), the cultures were fixed with 4% paraformaldehyde (PFA) and analyzed by phase contrast microscopy (Axiovert 35-M, Zeiss). A qualitative guidance index was attributed to the co-cultures, to assess the degree of repulsive (negative values) or attractive (positive values) effects (Castellani et al., 2000). The index ranged from −2 (when most fibers grew away from the spinal cord explant) to +2 (when most fibers grew towards the explant), with intermediate situations (index of −1 and +1 for moderate guidance effects). An index of zero was attributed to the cultures showing no preferential growth. Quantitative analysis of axon length and number of axons growing from cortical slices was performed as described previously (Castellani et al., 2000). A proximal and a distal region, each of them covering a 600 μm-piece of cortical tissue were determined for each culture. All fibers extending from these two regions were counted and the length of the three longest fibers was measured, using computer analysis software (Visiolab 2000, Biocom). Immunofluorescence labeling of axons was performed using the mouse anti-phosphorylated neurofilament antibody SMI31 (Stemberger and Meyer Inc.), and Texas red-conjugated secondary anti-mouse antibody (see result obtained for number of axons and axonal length in the following tables 1 and 2).
It has been previously developed an assay system using explants of ventral spinal cord co-cultured with cortical axons in order to determine the factors involved in axonal repulsion and attraction (Castellani et al., 2000). Using this system we have shown that Sema3A secreted from the ventral spinal cord repels cortical axons. In the presence of soluble wild-type L1Fc chimeric protein however, repulsion is switched to attraction (Castellani et al., […]). In the present study, we aimed to identify the L1 interactions underlying the switching process. As Ig domains have been implicated in binding of Ig CAMs to many of their ligands (Brümmendorf and Rathjen, 1996) we hypothesized that they would also be required for L1 Fc-mediated switching. […] L1 Fc chimeras containing pathological missense mutations affecting specific Ig domains (De Angelis et al., 1999 and FIGS. 1A, 1B) were assessed for their ability to reverse Sema3A repulsion to attraction.

NP-1 = assay: Binding of L1Fc chimeras to NP-1 expressing COS7 cells (immunofluorescence)
Experimental: (§1) The mutant L1Fc chimeras were produced and purified as described previously (De Angelis et al., 1999). Briefly, COS-7 cells were transiently transfected with 10 μg DNA per 150 mm culture dish, the soluble Fc chimeric protein was allowed to accumulate in the media for 6 days and was recovered and purified by protein A-Sepharose affinity chromatography. In the binding experiments, L1Fcs were cross-linked to anti-human Fc antibodies (50 μg/ml, Jackson Immunoresearch) for 1 hr at 37° C. Binding detection to NP-1 requested concentrations of L1Fcs 10 folds higher than L1. Antibody conjugated L1-Fc protein was then incubated with monolayers of COS7 cells transiently transfected with expression vectors encoding full length human L1 or myc-tagged NP-1 where the cytoplasmic domain is deleted (gift of J. Raper, 2000 and Renzi et al., 1999). Following incubation, the cells were fixed with 4% PFA, and processed for double-immunofluorescence detection. NP-1 was detected using a mouse anti-c myc antibody (clone 9E10, Sigma) and L1 using a rat monoclonal anti-L1 antibody. Secondary antibody anti-c-myc (Texas-red conjugated anti-mouse antibodies) was used to detect NP-1, anti-L1 (Texas red conjugated anti-rat antibodies) to detect L1, and anti-Fc (FITC conjugated anti-rabbit antibodies) to detect bound L1Fc chimeras. After secondary antibody incubation, the cells were washed with PBS and mounted in Mowiol (Calbiochem).
Next, we examined the ability of the mutant L1 Fc chimeras to bind NP-1. COS7 cells were transfected with a vector encoding the extracellular and transmembrane domains of NP-1 fused to a myc tag (ANP-1, Renzi et al., J. Neurosci., 15:7870-7880, 1999), and incubated with the mutant L1Fc chimeras. Binding was detected by immunofluorescence. […] Binding of L120V, G121S and A426D L1Fcs to NP-1 is illustrated in FIG. 3.

full length human L1 = biological target: T1, full length human L1 (Homo sapiens, UniProt P32004); assay: Binding of L1Fc chimeras to COS cells expressing wild-type L1 (immunofluorescence)
T1 construct: transiently transfected with expression vectors encoding full length human L1; expressed in transfected cells; host or cells: COS7
T1 sequence (P32004 20-1257): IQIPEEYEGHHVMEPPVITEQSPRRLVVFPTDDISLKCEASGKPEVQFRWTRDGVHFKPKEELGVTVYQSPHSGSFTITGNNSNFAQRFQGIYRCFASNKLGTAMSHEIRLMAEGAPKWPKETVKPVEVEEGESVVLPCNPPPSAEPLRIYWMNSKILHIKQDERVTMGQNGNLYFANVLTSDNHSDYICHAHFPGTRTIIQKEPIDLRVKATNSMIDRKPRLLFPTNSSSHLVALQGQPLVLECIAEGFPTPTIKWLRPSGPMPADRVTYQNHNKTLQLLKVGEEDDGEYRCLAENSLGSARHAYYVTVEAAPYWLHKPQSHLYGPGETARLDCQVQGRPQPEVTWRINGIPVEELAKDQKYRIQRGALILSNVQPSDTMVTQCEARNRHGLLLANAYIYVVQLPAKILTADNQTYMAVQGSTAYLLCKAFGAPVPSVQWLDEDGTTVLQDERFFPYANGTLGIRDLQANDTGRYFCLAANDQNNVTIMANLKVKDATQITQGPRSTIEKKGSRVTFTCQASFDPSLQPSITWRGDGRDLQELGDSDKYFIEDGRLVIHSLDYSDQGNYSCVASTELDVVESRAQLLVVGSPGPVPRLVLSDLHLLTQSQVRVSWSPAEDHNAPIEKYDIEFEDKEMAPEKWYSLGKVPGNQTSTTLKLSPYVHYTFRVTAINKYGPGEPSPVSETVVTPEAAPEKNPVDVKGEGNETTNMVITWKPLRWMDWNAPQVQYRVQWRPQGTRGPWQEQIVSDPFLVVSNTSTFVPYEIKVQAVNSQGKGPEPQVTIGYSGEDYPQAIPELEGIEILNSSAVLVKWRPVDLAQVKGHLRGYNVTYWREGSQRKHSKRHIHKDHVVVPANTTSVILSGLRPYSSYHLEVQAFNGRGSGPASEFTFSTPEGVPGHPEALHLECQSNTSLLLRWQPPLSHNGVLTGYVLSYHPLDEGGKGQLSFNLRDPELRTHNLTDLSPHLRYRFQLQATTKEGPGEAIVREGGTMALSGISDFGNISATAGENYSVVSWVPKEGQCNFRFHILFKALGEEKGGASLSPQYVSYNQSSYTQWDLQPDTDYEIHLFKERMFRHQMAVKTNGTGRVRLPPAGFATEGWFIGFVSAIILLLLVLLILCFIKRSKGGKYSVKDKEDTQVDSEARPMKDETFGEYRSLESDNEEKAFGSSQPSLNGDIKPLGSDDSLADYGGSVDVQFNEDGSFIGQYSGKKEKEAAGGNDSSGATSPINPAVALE
Experimental: as §1
Thus, Ig CAMs F3 and TAG-1 (the rodent homologue of axonin-1) ate unlikely to be axonal receptors for L1Fc in the reversion process. […] In the present study however, mutated L1Fc proteins were required to interact with wild-type L1 expressed on growth cones. To formally exclude a role for homophilic binding of L1 in the initiation of the reversion process, it was therefore necessary to examine whether homophilic binding of the mutated L1Fc chimeras to wild-type L1 was also disrupted. Mutated L1Fcs were therefore incubated with COS7 cells transfected with full-length wild-type L1 cDNA and binding was assessed by immunofluorescence. In parallel, homophilic binding of mutant/mutant and mutant/wild-type L1Fcs was compared in a two-color FACS aggregation assay, allowing a quantitative assessment to be made (see Methods). […] Similarly, in the two color FACS assay homophilic binding was restored to 74.4% and 90.5% of wild-type levels for A426D and H210Q respectively (FIG. 2B). […] This mutation however still promoted the L1 Fc induced switching of Sema3A repulsion to attraction in the co-culture assay. Thus, the ability of L1Fc to switch Sema3A repulsion is not dependent on homophilic binding. Consequently, the trans interaction of L1Fc with L1 in the receptor complex is not required for the change in growth cone responsiveness to Sema3A.

L1 = conditions: mutant bound to itself; cited from earlier work
F3, axonin-1 and TAX-1 = conditions: F3, axonin-1 (and TAX-1 where stated); cited from earlier work

With `O=[N+]([O-])c1cccc2cn[nH]c12` [7NI, 7 nitroindazole, reference compound] as the molecule, how does the “Axonal length, Away” value [1] read?
Its value is 407.6 +/− 5.

What about the “Number of axons, Away” value [1] of the same molecule?
Its value is 25.6 +/− 1.6.

And the “Axonal length, Towards” value [1]?
The value was 203.1 +/− 6, *.

What about the “Number of axons, Towards” value [1] of the same molecule?
The value was 5 +/− 0.6, *.

And the “effect of inhibitor on L1Fc-induced switch of Sema3A repulsion to attraction” value [1]?
Its value is “did block L1Fc-mediated chemoattraction; also recorded: prevented the L1 Fc induced switching of Sema3A from repulsion to attraction”.

What about the guidance index [1] of the same molecule?
Its guidance index is −1.6.

For “ASNKL (Description of the Artificial sequence Derived from the human amino-acid sequence of L1 Ig1 domain) [ASNKL120, five amino-acid peptide from L1 Ig1 domain]”, which “conversion of Sema3A-induced chemorepulsion into attraction by peptide” value [1] is on record?
The value was “successfully converted Sema3A-induced chemorepulsion into attraction”.

With `O=c1onc2cnc3ccccc3n12` [ODQ, 1H-(1,2,4)oxadiazolo(4,3-a)quinoxalin-1-one, reference compound] as the molecule, how does the “Axonal length, Away” value [1] read?
The value was 384.1 +/− 7.

What about the “Number of axons, Away” value [1] of the same molecule?
The value was 25.2 +/− 1.8.

And the “Axonal length, Towards” value [1]?
Its value is 206.9 +/− 8, *.

What about the “Number of axons, Towards” value [1] of the same molecule?
Its value is 5.1 +/− 0.5, *^.

What about the “effect of inhibitor on L1Fc-induced switch of Sema3A repulsion to attraction” value [1] of the same molecule?
Its value is “reversion was prevented; also recorded: prevented the L1 Fc induced switching of Sema3A from repulsion to attraction”.

And the guidance index [1]?
The guidance index was −1.6.

For “FASNKLGTAM (Description of the Artificial sequence Derived from the human amino-acid sequence of L1 Ig1 domain) [ten amino-acid peptide from L1 Ig1 domain]”, which “conversion of Sema3A-induced chemorepulsion into attraction by peptide” value [1] is on record?
The value was “successfully converted Sema3A-induced chemorepulsion into attraction”.

B1: H210Q: L1Fc chimera with missense mutation H210Q in Ig domain 2 (protein)
chain: IQIPEEYEGHHVMEPPVITEQSPRRLVVFPTDDISLKCEASGKPEVQFRWTRDGVHFKPKEELGVTVYQSPHSGSFTITGNNSNFAQRFQGIYRCFASNKLGTAMSHEIRLMAEGAPKWPKETVKPVEVEEGESVVLPCNPPPSAEPLRIYWMNSKILHIKQDERVTMGQNGNLYFANVLTSDNHSDYICQAHFPGTRTIIQKEPIDLRVKATNSMIDRKPRLLFPTNSSSHLVALQGQPLVLECIAEGFPTPTIKWLRPSGPMPADRVTYQNHNKTLQLLKVGEEDDGEYRCLAENSLGSARHAYYVTVEAAPYWLHKPQSHLYGPGETARLDCQVQGRPQPEVTWRINGIPVEELAKDQKYRIQRGALILSNVQPSDTMVTQCEARNRHGLLLANAYIYVVQLPAKILTADNQTYMAVQGSTAYLLCKAFGAPVPSVQWLDEDGTTVLQDERFFPYANGTLGIRDLQANDTGRYFCLAANDQNNVTIMANLKVKDATQITQGPRSTIEKKGSRVTFTCQASFDPSLQPSITWRGDGRDLQELGDSDKYFIEDGRLVIHSLDYSDQGNYSCVASTELDVVESRAQLLVVGSPGPVPRLVLSDLHLLTQSQVRVSWSPAEDHNAPIEKYDIEFEDKEMAPEKWYSLGKVPGNQTSTTLKLSPYVHYTFRVTAINKYGPGEPSPVSETVVTPEAAPEKNPVDVKGEGNETTNMVITWKPLRWMDWNAPQVQYRVQWRPQGTRGPWQEQIVSDPFLVVSNTSTFVPYEIKVQAVNSQGKGPEPQVTIGYSGEDYPQAIPELEGIEILNSSAVLVKWRPVDLAQVKGHLRGYNVTYWREGSQRKHSKRHIHKDHVVVPANTTSVILSGLRPYSSYHLEVQAFNGRGSGPASEFTFSTPEGVPGHPEALHLECQSNTSLLLRWQPPLSHNGVLTGYVLSYHPLDEGGKGQLSFNLRDPELRTHNLTDLSPHLRYRFQLQATTKEGPGEAIVREGGTMALSGISDFGNISATAGENYSVVSWVPKEGQCNFRFHILFKALGEEKGGASLSPQYVSYNQSSYTQWDLQPDTDYEIHLFKERMFRHQMAVKTNGTGRVRLPPAGFATE
modifications: left off: a dimerising Fc or GST
For B1, which “binding to NP-1 expressing cells” value (NP-1) is on record?
Its value is “bound NP-1 expressing cells”.

What about the “switching of Sema3A repulsion to attraction by L1Fc chimera” value [1] of the same molecule?
Its value is “able to reverse Sema3A repulsion to attraction; also recorded: efficiently induce switching of Sema3A repulsion to attraction”.

What about the “binding to wild-type L1 expressed in COS cells” value (full length human L1) of the same molecule?
Its value is “bound to wild-type L1”.

And the “effect of mutation on homophilic binding” value (L1)?
The value was “affect homophilic”.

B2: E309K: L1Fc chimera with missense mutation E309K in Ig domain 3 (protein)
chain: B1 chain with Q191H, E290K
modifications: left off: a dimerising Fc or GST
Which results are given for B2?
binding to NP-1 expressing cells (NP-1): bound NP-1 expressing cells; effect of mutation on heterophilic binding (F3, axonin-1 and TAX-1): affect; switching of Sema3A repulsion to attraction by L1Fc chimera [1]: able to reverse Sema3A repulsion to attraction; also recorded: efficiently induce switching of Sema3A repulsion to attraction; also recorded: switched Sema3A from repulsion to attraction to the same extent as wild type L1Fc

B3: A426D: L1Fc chimera with missense mutation A426D in Ig domain 5 (protein)
chain: B1 chain with Q191H, A407D
modifications: left off: a dimerising Fc or GST
With B3 as the molecule, how does the “binding to NP-1 expressing cells” value (NP-1) read?
The value was “bound to NP-1 expressing cells”.

And the “effect of mutation on heterophilic binding” value (F3, axonin-1 and TAX-1)?
The value was “reduce”.

What about the “switching of Sema3A repulsion to attraction by L1Fc chimera” value [1] of the same molecule?
Its value is “able to reverse Sema3A repulsion to attraction; also recorded: efficiently induce switching of Sema3A repulsion to attraction; also recorded: switched Sema3A from repulsion to attraction to the same extent as wild type L1Fc”.

What about the “binding to wild-type L1 expressed in COS cells” value (full length human L1) of the same molecule?
Its value is “bound to wild-type L1”.

And the “effect of mutation on homophilic binding” value (L1)?
Its value is “reduce homophilic binding”.
